Where two headings read alike, the source gives them in different places.
Experiments:
SW620 cells = assay: SW620 3D proliferation assay (CellTiter-Glo); type: cell-based; details: SW620, 3D culture, 7 days, read-out: SW620 CTG IC50
Description: (§1) SW620 and HPAC 3D proliferation assays.
(§2) Compound potencies were assessed in proliferation assays conducted with SW620 and HPAC cell lines grown in 3D cultures. Cells were seeded into 96- or 384-well ultra-low attachment plates at 3000 or 1000 cells/well, respectively, in culture medium (RPMI-1640, 10% FBS, 2 mM L-glutamine). The plated cells were centrifuged briefly, allowed to rest for 30 minutes under ambient conditions, and cultured overnight at 37° C./5% CO2 to initiate the formation of spheroids. Compound dilutions were prepared across a range of concentrations in DMSO and added to the appropriate wells of the assay plates with a 333-fold dilution into the culture medium. The plates were further incubated for 7 days. The quantity of viable cells was assessed using CellTiter-Glo 3D Cell Viability Assay (Promega). The detection reagent penetrates the spheroids and lyses the cells. The released ATP that was detected with luciferase and a luciferase substrate to generate a luminescent readout. […] The data points were fit to a 4-parameter logistic equation to determine IC50 values.

H1975 cells = assay: H1975 CTG proliferation assay; type: cell-based
HPAC cells = assay: HPAC 3D proliferation assay (CellTiter-Glo); type: cell-based; details: 3D culture, 7 days, read-out: HPAC CTG IC50
Description: as §1, §2

SW480 cells = assay: SW480 CTG proliferation assay; type: cell-based; details: Homo sapiens
SW620 PERK = SW620 PERK assay; type: cell-based
[1] = biological target: recombinant human KRAS wild type (SOS1-mediated nucleotide exchange) (Homo sapiens (Human), UniProt P01116); assay: KRAS biochemical assay, BODIPY-GDP exchange TR-FRET (WT-GDP HTRF)
Description: [Worded in the source for another variant; this variant is reported under the same test.] KRAS Biochemical Assay—BODIPY-GDP Exchange TR-FRET.
Biochemical compound potencies were assessed by evaluating inhibition of SOS1-mediated nucleotide exchange in KRAS G12D. The SOS1-promoted exchange of fluorescently-labeled GDP (BOPIDY-GDP) was monitored by time-resolved fluorescence resonance energy transfer (TR-FRET). Compounds solubilized in DMSO were dispensed as concentration series into 384-well white assay plates. […] The reaction was initiated with the addition of 5 μL of 3 nM recombinant human SOS1 and 300 nM BODIPY-GDP in assay buffer. After a 60-minute incubation, the fluorescence was measured with excitation at 337 nm and emission at 490 and 520 nm. The TR-FRET ratio was determined as the fluorescence at 520 nm divided by the fluorescence at 490 nm multiplied by 10,000. […] The normalized TR-FRET results were plotted against compound concentration, and the data fit to a 4-parameter Hill equation to determine the IC50 values.

[2] = biological target: recombinant human mutant KRas G12V (SOS1-mediated nucleotide exchange) (Homo sapiens (Human), UniProt P01116, G12V); assay: KRAS biochemical assay, BODIPY-GDP exchange TR-FRET (G12V-GDP HTRF)
[3] = Homo sapiens, NCI-H1975, H1975, CTG
[4] = Homo sapiens, SW-620, SW620, PERK

Sequence of recombinant human KRAS wild type (SOS1-mediated nucleotide exchange) (P01116-2 other isoform, or with tags, fused parts or gaps): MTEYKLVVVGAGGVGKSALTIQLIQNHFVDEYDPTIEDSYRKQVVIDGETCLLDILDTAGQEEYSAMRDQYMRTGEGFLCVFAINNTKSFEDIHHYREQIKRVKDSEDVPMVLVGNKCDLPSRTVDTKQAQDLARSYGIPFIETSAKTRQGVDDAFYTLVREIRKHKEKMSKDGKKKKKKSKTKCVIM
Sequence of recombinant human mutant KRas G12V (SOS1-mediated nucleotide exchange) (P01116-2 other isoform, or with tags, fused parts or gaps G12V): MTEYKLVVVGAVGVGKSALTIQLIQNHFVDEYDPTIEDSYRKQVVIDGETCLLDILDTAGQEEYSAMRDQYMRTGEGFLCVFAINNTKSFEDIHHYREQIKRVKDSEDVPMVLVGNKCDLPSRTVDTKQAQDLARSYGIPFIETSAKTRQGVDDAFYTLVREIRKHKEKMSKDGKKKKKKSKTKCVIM

IC50 (SW620 cells; Homo sapiens, SW-620, 168 h) | IC50 (H1975 cells; [3]) | IC50 (SW480 cells) | IC50 (SW620 PERK; [4]) | IC50 [1] | IC50 [2] | IC50 (SW620 cells) | IC50 (H1975 cells; H1975, CTG) | IC50 (SW620 PERK; SW620, PERK) | SMILES | IC50 (HPAC cells; Homo sapiens, 168 h) | IC50 (HPAC cells)
1.26 nM | 2.59 nM | 2.4 nM | 1.07 nM | – | – | – | – | – | C#Cc1cccc2cc(N)cc(-c3nc4c5c(nc(OC[C@@]67CCCN6C[C@H](F)C7)nc5c3F)N([C@H](C)c3cccnc3N)CCO4)c12 [Example 4, 3-((R)-1-(5-(3-amino-8-ethynyinaphthalen-1-yl)-4-fluoro-2-(((2R,7aS)-2-fluorotetrahydro-1H-pyrrolizin-7a(5H)-yl)methoxy)-8,9-dihydro-10H-7-oxa-1,3,6,10-tetraazacyclohepta[de]naphthalen-10-yl)ethyl)pyridin-2-amine] | 5.72 nM | –
1520 nM | 374 nM | – | 855 nM | 0.808 nM | 0.2 nM | – | – | – | Cc1nc(N)cc(-c2nc3c4c(nc(OC[C@@]56CCN5C[C@]5(CC5(F)F)C6)nc4c2F)N([C@H](C)c2cncnc2N)CCO3)c1C(F)(F)F [Example 606] | > 2000 nM | –
1.68 nM | 2.59 nM | 31 nM | – | – | – | – | – | – | CCc1cccc2cc(O)cc(-c3nc4c5c(nc(OC[C@@]67CCCN6C[C@H](F)C7)nc5c3F)N([C@H](C)c3cccnc3N)CCO4)c12 [Example 27, 4-(10-((R)-1-(2-aminopyridin-3-yl)ethyl)-4-fluoro-2-(((2R,7aS)-2-fluorotetrahydro-1H-pyrrolizin-7a(5H)-yl)methoxy)-9,10-dihydro-8H-7-oxa-1,3,6,10-tetraazacyclohepta[de]naphthalen-5-yl)-5-ethylnaphthalen-2-ol] | 55.2 nM | –
28.8 nM | 134 nM | – | 21.2 nM | 2 nM | 0.32 nM | – | – | – | Cc1c(F)c(N)nc(-c2nc3c4c(nc(OC[C@@]56CCCN5C[C@H](F)C6)nc4c2F)N([C@H](C)c2nccnc2N)CCO3)c1C(F)(F)F [Example 630, 3-((R)-1-(5-(6-amino-5-fluoro-4-methyl-3-(trifluoromethyl)pyridin-2-yl)-4-fluoro-2-(((2R,7aS)-2-fluorotetrahydro-1H-pyrrolizin-7a(5H)-yl)methoxy)-8,9-dihydro-10H-7-oxa-1,3,6,10-tetraazacyclohepta[de]naphthalen-10-yl)ethyl)pyrazin-2-amine] | 208 nM | –
16.2 nM | 17.9 nM | – | 26.8 nM | 0.419 nM | 0.27 nM | – | – | – | Cc1c(F)c(N)cc(-c2nc3c4c(nc(OC[C@@]56CCCN5C[C@]5(CC5(F)F)C6)nc4c2F)N([C@H](C)c2cccnc2N)CCO3)c1C(F)(F)F [Example 31, 3-((R)-1-(5-(5-amino-4-fluoro-3-methyl-2-(trifluoromethyl)phenyl)-2-(((1R,7a'S)-2,2-difluorodihydro-1′H,3′H-spiro[cyclopropane-1,2′-pyrrolizin]-7a′(5′H)-yl)methoxy)-4-fluoro-8,9-dihydro-10H-7-oxa-1,3,6,10-tetraazacyclohepta[de]naphthalen-10-yl)ethyl)pyridin-2-amine] | 156 nM | –
1.64 nM | 2.59 nM | – | 0.66 nM | 0.15 nM | 0.09 nM | – | – | – | C#Cc1cccc2cc(N)cc(-c3nc4c5c(nc(OC[C@@]67CCCN6C[C@H](F)C7)nc5c3F)N([C@H](C)c3nccnc3N)CCO4)c12 [Example 29, 3-((R)-1-(5-(3-Amino-8-ethynyinaphthalen-1-yl)-4-fluoro-2-(((2R,7aS)-2-fluorotetrahydro-1H-pyrrolizin-7a(5H)-yl)methoxy)-8,9-dihydro-10H-7-oxa-1,3,6,10-tetraazacyclohepta[de]naphthalen-10-yl)ethyl)pyrazin-2-amine] | 4.51 nM | –
13 nM | 5.54 nM | – | 5.44 nM | 0.33 nM | 0.24 nM | – | – | – | C#Cc1cccc2cncc(-c3nc4c5c(nc(OC[C@@]67CCCN6C[C@H](F)C7)nc5c3F)N([C@H](C)c3cccnc3N)CCO4)c12 [Example 18, 3-((R)-1-(5-(5-ethynylisoquinolin-4-yl)-4-fluoro-2-(((2R,7aS)-2-fluorotetrahydro-1H-pyrrolizin-7a(5H)-yl)methoxy)-8,9-dihydro-10H-7-oxa-1,3,6,10-tetraazacyclohepta[de]naphthalen-10-yl)ethyl)pyridin-2-amine] | 56.1 nM | –
19.9 nM | 48.4 nM | – | 23 nM | 0.416 nM | 0.2 nM | – | – | – | Cc1cc(N)nc(-c2nc3c4c(nc(OC[C@@]56CCCN5C[C@H](F)C6)nc4c2Cl)N([C@H](C)c2cccnc2N)CCO3)c1C(F)(F)F [Example 633, 6-(10-((R)-1-(2-aminopyridin-3-yl)ethyl)-4-chloro-2-(((2R,7aS)-2-fluorotetrahydro-1H-pyrrolizin-7a(5H)-yl)methoxy)-9,10-dihydro-8H-7-oxa-1,3,6,10-tetraazacyclohepta[de]naphthalen-5-yl)-4-methyl-5-(trifluoromethyl)pyridin-2-amine] | 77.8 nM | –
2.67 nM | 2.59 nM | – | 2.65 nM | 0.114 nM | 0.06 nM | – | – | – | C#Cc1cccc2nc(N)cc(-c3nc4c5c(nc(OC[C@@]67CCCN6C[C@H](F)C7)nc5c3F)N([C@H](C)c3cccnc3N)CCO4)c12 [Example 30, 4-(10-((R)-1-(2-aminopyridin-3-yl)ethyl)-4-fluoro-2-(((2R,7aS)-2-fluorotetrahydro-1H-pyrrolizin-7a(5H)-yl)methoxy)-9,10-dihydro-8H-7-oxa-1,3,6,10-tetraazacyclohepta[de]naphthalen-5-yl)-5-ethynylquinolin-2-amine] | 15.8 nM | –
90.7 nM | 35.5 nM | – | 17.8 nM | 0.69 nM | 0.27 nM | – | – | – | Cc1cc(N)nc(-c2nc3c4c(nc(OC[C@@]56CCCN5C[C@H](F)C6)nc4c2F)N(C(C)c2scnc2N)CCO3)c1C(F)(F)F (stereo partly drawn) [Example 607, 5-(1-(5-(6-amino-4-methyl-3-(trifluoromethyl)pyridin-2-yl)-4-fluoro-2-(((2R,7aS)-2-fluorotetrahydro-1H-pyrrolizin-7a(5H)-yl)methoxy)-8,9-dihydro-10H-7-oxa-1,3,6,10-tetraazacyclohepta[de]naphthalen-10-yl)ethyl)thiazol-4-amine] | 302 nM | –
193 nM | 854 nM | – | 52.6 nM | 4.67 nM | 0.44 nM | – | – | – | Cc1nc(N)cc(-c2nc3c4c(nc(OC[C@@H]5CCCN5C)nc4c2F)N([C@H](C)c2cccnc2N)CCO3)c1C(F)(F)F [Example 627, 4-(10-((R)-1-(2-aminopyridin-3-yl)ethyl)-4-fluoro-2-(((S)-1-methylpyrrolidin-2-yl)methoxy)-9,10-dihydro-8H-7-oxa-1,3,6,10-tetraazacyclohepta[de]naphthalen-5-yl)-6-methyl-5-(trifluoromethyl)pyridin-2-amine] | 1360 nM | –
– | – | – | – | 2.93 nM | 1.9 nM | 6.87 nM | 180 nM | 33.1 nM | Cc1cc(N)c(Cl)c(-c2nc3c4c(nc(OC[C@@]56CCCN5C[C@H](F)C6)nc4c2F)N([C@H](C)c2cccnc2N)CCO3)c1C(F)(F)F (single isomer, unassigned) [Example 21a] | – | 103 nM
14.6 nM | 471 nM | – | 14 nM | 0.826 nM | 0.33 nM | – | – | – | Cc1nc(N)nc(-c2nc3c4c(nc(OC[C@@]56CCCN5C[C@H](F)C6)nc4c2F)N([C@H](C)c2cccnc2N)CCO3)c1C(F)(F)F [Example 628, 4-(10-((R)-1-(2-aminopyridin-3-yl)ethyl)-4-fluoro-2-(((2R,7aS)-2-fluorotetrahydro-1H-pyrrolizin-7a(5H)-yl)methoxy)-9,10-dihydro-8H-7-oxa-1,3,6,10-tetraazacyclohepta[de]naphthalen-5-yl)-6-methyl-5-(trifluoromethyl)pyrimidin-2-amine] | 331 nM | –

From patent US20240228512A1, “ACYCLIC OXAZEPINE COMPOUNDS COMPRISING A 6-AZA MOIETY AND USES THEREOF” (Genentech, Inc., priority 2022, published 2024)
